Source: US8575091B1, “Amylin analogues and pharmaceutical compositions thereof” (Novo Nordisk A/S, priority 2012, dated 2013)
Numbered stars: 1 amine (or outer) side, 2 acyl side, 3 side chain; on linkers, the order of the positions; unused ones are H or OH. Bridge positions count the residues as written; N and C are the ends. Peptide text beside a SMILES is read from it. * marks the point of attachment. C20 diacid = O=C(O)CCCCCCCCCCCCCCCCCCC(=O)*; γGlu = O=C(O)[C@H](CCC(=O)[*:2])N[*:1]

Assays:
[1] = biological target: T1, human amylin receptor (amylin 3(a) receptor: human calcitonin receptor + RAMP-3) (Homo sapiens, UniProt O60896+P30988); assay: Assay (II)a functional assay, human amylin receptor (CRE luciferase, BHK cells); format: cell-based
T1 construct: expressed in transfected cells
T1 sequence (P30988 25-474): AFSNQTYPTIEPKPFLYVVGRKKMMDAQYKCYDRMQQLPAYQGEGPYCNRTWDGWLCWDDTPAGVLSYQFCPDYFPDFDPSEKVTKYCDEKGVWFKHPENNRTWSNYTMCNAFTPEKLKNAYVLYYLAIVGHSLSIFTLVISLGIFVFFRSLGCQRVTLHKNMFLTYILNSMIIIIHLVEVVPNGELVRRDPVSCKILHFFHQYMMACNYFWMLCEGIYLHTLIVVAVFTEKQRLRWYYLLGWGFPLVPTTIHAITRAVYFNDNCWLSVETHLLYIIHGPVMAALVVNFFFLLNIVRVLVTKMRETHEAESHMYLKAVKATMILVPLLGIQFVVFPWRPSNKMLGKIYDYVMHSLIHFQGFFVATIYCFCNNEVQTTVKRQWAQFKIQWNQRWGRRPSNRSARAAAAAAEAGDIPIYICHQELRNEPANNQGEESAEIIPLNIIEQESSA
T1 sequence (O60896 24-148 partner): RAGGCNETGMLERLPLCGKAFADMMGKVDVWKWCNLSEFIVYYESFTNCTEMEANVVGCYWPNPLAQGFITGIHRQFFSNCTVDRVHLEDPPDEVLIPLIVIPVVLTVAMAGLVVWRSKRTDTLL

human amylin receptor = biological target: T2, human amylin receptor (Homo sapiens, UniProt O60896+P30988); assay: Assay (V) binding to the human amylin receptor (SPA, 125I-rat amylin)
T2 construct: expressed in transfected cells
T2 sequence (P30988 25-474): T1 sequence (P30988 25-474)
T2 sequence (O60896 24-148 partner): T1 sequence (O60896 24-148 partner)
Protocol: The binding assay was performed using scintillation proximity assay (SPA) beads (RPNQ0001) from PerkinElmer and cell membranes from the Amylin 3(a)/CRE-luc cells (as described in Assay (II)) were used. Membranes were prepared in the following way; the cells were rinsed with PBS and incubated with Versene for approximately 5 min before harvesting. The cells were flushed with PBS and the cell-suspension was centrifuged for 5 min at 1000 rpm. […] The resulting pellet was resuspended in buffer 2 and protein concentration was measured (BCA protein Assay, Pierce). The homogenate was kept cold during the whole procedure. The membranes were kept at −80° C. until use. The assay was performed in a 384 well Optiplate (PerkinElmer) in a total volume of 40 ul. Membranes were mixed with SPA beads. Final concentration of membranes 35 ng/μL final and SPA beads was 0.05 mg/well. Test-compounds were dissolved in DMSO and further diluted in assay buffer (50 mM Hepes, pH 7.4, 1 mM CaCl2, 5 mM MgCl2, 0.1% OA and 0.02% Tween20). […] Samples were analyzed on TopCounter™ (Packard). The IC50 was calculated using (one site binding competition analysis) GraphPad Prism5 as a measure of receptor affinity.

[2] = Table 6, human functional selectivity (hCTR EC50 / hAmylin-R EC50)
[3] = human binding ratio, included for comparison

Row | Structure (SMILES) | Ratio hCT/hAmylin funct. [1, 2] | Ratio hCT/hAmylin binding (human amylin receptor; [3]) | Ratio hCT/hAmylin funct. ([1]; Table 6a, human functional selectivity (hCTR EC50 / hAmylin-R EC50), at least 5) | Ratio hCT/hAmylin funct. ([1]; Table 6i, hCTR funct. EC50 / hAmylin-R funct. EC50) | Ratio hCT/hAmylin funct. ([1]; Table 6j, hCTR funct. EC50 / hAmylin-R funct. EC50) | Ratio hCT/hAmylin funct. ([1]; Table 6k, hCTR funct. EC50 / hAmylin-R funct. EC50) | Ratio hCT/hAmylin binding (human amylin receptor; Table 7b, human calcitonin receptor binding IC50 divided by human amylin receptor binding IC50) | Ratio hCT/hAmylin binding (human amylin receptor; Table 7c, human calcitonin receptor binding IC50 divided by human amylin receptor binding IC50)
1 | CC[C@H](C)[C@H](NC(=O)[C@H](C)NC(=O)CNC(=O)[C@H](Cc1ccccc1)NC(=O)[C@H](CC(N)=O)NC(=O)[C@@H]1CCCN1C(=O)[C@H](CO)NC(=O)[C@H](CO)NC(=O)[C@H](Cc1c[nH]cn1)NC(=O)[C@H](CCCNC(=N)N)NC(=O)[C@H](CC(C)C)NC(=O)[C@H](Cc1ccccc1)NC(=O)[C@H](CCC(=O)O)NC(=O)[C@H](C)NC(=O)[C@H](CC(C)C)NC(=O)[C@H](CCCNC(=N)N)NC(=O)[C@H](CCC(N)=O)NC(=O)[C@@H](NC(=O)[C@H](C)NC(=O)[C@@H]1CSSC[C@H](NC(=O)[C@H](CCCCN)NC(=O)CC[C@H](NC(=O)CCCCCCCCCCCCCCCCCCC(=O)O)C(=O)O)C(=O)N[C@@H](CC(N)=O)C(=O)N[C@@H]([C@@H](C)O)C(=O)N[C@@H](C)C(=O)N[C@@H]([C@@H](C)O)C(=O)N1)[C@@H](C)O)C(=O)N1CCC[C@H]1C(=O)N[C@@H](CO)C(=O)N[C@@H](CO)C(=O)N[C@H](C(=O)N[C@@H](CC(N)=O)C(=O)N[C@H](C(=O)NCC(=O)N[C@@H](CO)C(=O)N[C@@H](CC(=O)O)C(=O)N[C@H](C(=O)N1CCC[C@H]1C(N)=O)[C@@H](C)O)C(C)C)[C@@H](C)O [Example 11] ({C20 diacid-γGlu}-KCNTATCATQRLAEFLRHSSPNFGAIPSSTNVGSDTP-NH2; disulfide 2-7) | 0.9 | 1.0 | – | – | – | – | – | –
2 | CC[C@H](C)[C@H](NC(=O)[C@H](C)NC(=O)CNC(=O)[C@H](Cc1ccccc1)NC(=O)[C@H](CC(N)=O)NC(=O)[C@@H]1CCCN1C(=O)[C@H](CO)NC(=O)[C@H](CO)NC(=O)[C@H](Cc1c[nH]cn1)NC(=O)[C@H](CCCNC(=N)N)NC(=O)[C@H](CC(C)C)NC(=O)[C@H](Cc1ccccc1)NC(=O)[C@H](CCC(=O)O)NC(=O)[C@H](C)NC(=O)[C@H](CC(C)C)NC(=O)[C@H](CCCNC(=N)N)NC(=O)[C@H](CCC(N)=O)NC(=O)[C@@H](NC(=O)[C@H](C)NC(=O)[C@@H]1CSSC[C@H](NC(=O)[C@H](CCCCN)NC(=O)CC[C@H](NC(=O)CC[C@H](NC(=O)CCCCCCCCCCCCCCCCCCC(=O)O)C(=O)O)C(=O)O)C(=O)N[C@@H](CC(N)=O)C(=O)N[C@@H]([C@@H](C)O)C(=O)N[C@@H](C)C(=O)N[C@@H]([C@@H](C)O)C(=O)N1)[C@@H](C)O)C(=O)N1CCC[C@H]1C(=O)N[C@@H](CO)C(=O)N[C@@H](CO)C(=O)N[C@H](C(=O)N[C@@H](CC(N)=O)C(=O)N[C@H](C(=O)NCC(=O)N[C@@H](CO)C(=O)N[C@@H](CC(N)=O)C(=O)N[C@H](C(=O)N[C@@H](Cc1ccc(O)cc1)C(N)=O)[C@@H](C)O)C(C)C)[C@@H](C)O [Example 15] ({C20 diacid-γGlu-γGlu}-KCNTATCATQRLAEFLRHSSPNFGAIPSSTNVGSNTY-NH2; disulfide 2-7) | 8.9 | 26.0 | 8.9 | 8.9 | 8.9 | 8.9 | 26.0 | 26.0
